From publication PMC5218480 (PLoS ONE, 2017)

Tested on: MV-4-11 cells
Experiment: Gene expression microarray analysis (Affymetrix PrimeView) and GSEA
Assay type: cell-based, human
Design: RFU PODN (11730768_x_at) / Fold change /veh PODN (11730768_x_at) / RFU LINC00158 (11744669_a_at) / Fold change /veh LINC00158 (11744669_a_at) / RFU DUSP10 (11751237_a_at) / Fold change /veh DUSP10 (11751237_a_at) / RFU ID3 (11757404_x_at) / Fold change /veh ID3 (11757404_x_at) / RFU PLEKHG5 (11737974_s_at) / Fold change /veh PLEKHG5 (11737974_s_at) / RFU LRRC4B (11730491_at) / Fold change /veh LRRC4B (11730491_at) / RFU GIMAP4 (11747438_a_at) / Fold change /veh GIMAP4 (11747438_a_at) / RFU KRT8 (11758183_x_at) / Fold change /veh KRT8 (11758183_x_at) / RFU CNN1 (11734310_a_at) / Fold change /veh CNN1 (11734310_a_at) / RFU VPS37D (11726825_at) / Fold change /veh VPS37D (11726825_at) / RFU C10orf10 (11716522_x_at) / Fold change /veh C10orf10 (11716522_x_at) / RFU KIR2DL2 /// KIR2DL4 /// KIR2DL5A /// KIR2DL5B /// KIR2DS1 /// KIR2DS2 /// KIR2DS3 /// KIR2DS4 /// KIR3DL3 /// KIR3DL3 /// KIR3DS1 (11738374_at) / Fold change /veh KIR2DL2 /// KIR2DL4 /// KIR2DL5A /// KIR2DL5B /// KIR2DS1 /// KIR2DS2 /// KIR2DS3 /// KIR2DS4 /// KIR3DL3 /// KIR3DL3 /// KIR3DS1 (11738374_at) / RFU C1QL1 (11718748_at) / Fold change /veh C1QL1 (11718748_at) / RFU TMPRSS4 (11747572_a_at) / Fold change /veh TMPRSS4 (11747572_a_at) / RFU HAMP (11756126_x_at) / Fold change /veh HAMP (11756126_x_at) / RFU RNFT2 (11725882_a_at) / Fold change /veh RNFT2 (11725882_a_at) / RFU NR4A2 (11747474_a_at) / Fold change /veh NR4A2 (11747474_a_at) / RFU ABCC12 (11746883_a_at) / Fold change /veh ABCC12 (11746883_a_at) / RFU TMEM136 (11760407_x_at) / Fold change /veh TMEM136 (11760407_x_at) / RFU CLDN22 /// WWC2 (11732394_at) / Fold change /veh CLDN22 /// WWC2 (11732394_at) / RFU HLA-DPB1 (11760878_x_at) / Fold change /veh HLA-DPB1 (11760878_x_at) / RFU SPINT1 (11716480_a_at) / Fold change /veh SPINT1 (11716480_a_at) / RFU GAP43 (11754022_s_at) / Fold change /veh GAP43 (11754022_s_at) / RFU A4GNT (11735810_at) / Fold change /veh A4GNT (11735810_at) / RFU PRB3 (11715151_x_at) / Fold change /veh PRB3 (11715151_x_at) / RFU TUBB4B (11761932_at) / Fold change /veh TUBB4B (11761932_at) / RFU CAPN14 (11732068_a_at) / Fold change /veh CAPN14 (11732068_a_at) / RFU TMCC2 (11721928_a_at) / Fold change /veh TMCC2 (11721928_a_at) / RFU IRGQ (11745062_a_at) / Fold change /veh IRGQ (11745062_a_at) / RFU FAM174B (11720279_a_at) / Fold change /veh FAM174B (11720279_a_at) / RFU TMPRSS4 (11748680_a_at) / Fold change /veh TMPRSS4 (11748680_a_at) / RFU FAM212B (11763350_a_at) / Fold change /veh FAM212B (11763350_a_at) / RFU PLEKHG5 (11743358_a_at) / Fold change /veh PLEKHG5 (11743358_a_at) / RFU ZSCAN30 (11745921_a_at) / Fold change /veh ZSCAN30 (11745921_a_at) / RFU CMKLR1 (11741424_a_at) / Fold change /veh CMKLR1 (11741424_a_at) / RFU LOC101060620 /// MAPK8IP1 (11723275_at) / Fold change /veh LOC101060620 /// MAPK8IP1 (11723275_at) / RFU SPTSSB (11747773_x_at) / Fold change /veh SPTSSB (11747773_x_at) / RFU PRSS12 (11739890_at) / Fold change /veh PRSS12 (11739890_at) / RFU BIN1 (11741810_x_at) / Fold change /veh BIN1 (11741810_x_at) / RFU WNT11 (11732464_a_at) / Fold change /veh WNT11 (11732464_a_at) / RFU C10orf10 (11716521_a_at) / Fold change /veh C10orf10 (11716521_a_at) / RFU C5orf56 (11738089_at) / Fold change /veh C5orf56 (11738089_at) / RFU CYB561 (11721691_x_at) / Fold change /veh CYB561 (11721691_x_at) / RFU ANKRD19P (11752326_a_at) / Fold change /veh ANKRD19P (11752326_a_at) / RFU OR2T12 /// OR2T33 /// OR2T8 (11738714_s_at) / Fold change /veh OR2T12 /// OR2T33 /// OR2T8 (11738714_s_at) / RFU VCAN (11748164_a_at) / Fold change /veh VCAN (11748164_a_at) / RFU JSRP1 (11732532_at) / Fold change /veh JSRP1 (11732532_at) / RFU KRTAP10-11 (11738290_x_at) / Fold change /veh KRTAP10-11 (11738290_x_at) / RFU MYO3A (11730013_a_at) / Fold change /veh MYO3A (11730013_a_at) / RFU EBF3 (11725865_a_at) / Fold change /veh EBF3 (11725865_a_at) / RFU CAMK2N1 (11719241_x_at) / Fold change /veh CAMK2N1 (11719241_x_at) / RFU C5orf56 (11738088_a_at) / Fold change /veh C5orf56 (11738088_a_at) / RFU OLFML3 (11715873_a_at) / Fold change /veh OLFML3 (11715873_a_at) / RFU LOC100653217 /// NTM (11731650_a_at) / Fold change /veh LOC100653217 /// NTM (11731650_a_at) / RFU MAPK11 (11762145_a_at) / Fold change /veh MAPK11 (11762145_a_at) / RFU FIZ1 (11724087_x_at) / Fold change /veh FIZ1 (11724087_x_at) / RFU OASL (11726364_x_at) / Fold change /veh OASL (11726364_x_at) / RFU SOX15 (11748057_x_at) / Fold change /veh SOX15 (11748057_x_at) / RFU CD79A (11719716_a_at) / Fold change /veh CD79A (11719716_a_at) / RFU HIST1H1D (11736915_at) / Fold change /veh HIST1H1D (11736915_at) / RFU CASKIN2 (11723855_a_at) / Fold change /veh CASKIN2 (11723855_a_at) / RFU LOC730098 (11760151_x_at) / Fold change /veh LOC730098 (11760151_x_at) / RFU OR4N2 (11742367_at) / Fold change /veh OR4N2 (11742367_at) / RFU PRRT2 (11749266_a_at) / Fold change /veh PRRT2 (11749266_a_at) / RFU SNX32 (11753110_a_at) / Fold change /veh SNX32 (11753110_a_at) / RFU CDHR5 (11726645_a_at) / Fold change /veh CDHR5 (11726645_a_at) / RFU RCAN1 (11760418_a_at) / Fold change /veh RCAN1 (11760418_a_at) / RFU FAM167A (11723789_a_at) / Fold change /veh FAM167A (11723789_a_at) / RFU FAM26E (11764081_at) / Fold change /veh FAM26E (11764081_at) / RFU ISYNA1 (11749810_s_at) / Fold change /veh ISYNA1 (11749810_s_at) / RFU ACY1 (11761880_at) / Fold change /veh ACY1 (11761880_at) / RFU 11764098_at / Fold change /veh 11764098_at / RFU SAMD14 (11745864_x_at) / Fold change /veh SAMD14 (11745864_x_at) / RFU NPB (11741838_a_at) / Fold change /veh NPB (11741838_a_at) / RFU TMPRSS6 (11731388_a_at) / Fold change /veh TMPRSS6 (11731388_a_at) / RFU KRTAP10-2 (11738614_at) / Fold change /veh KRTAP10-2 (11738614_at) / RFU ARHGAP8 /// PRR5-ARHGAP8 (11727945_x_at) / Fold change /veh ARHGAP8 /// PRR5-ARHGAP8 (11727945_x_at) / RFU KRTAP5-7 /// NADSYN1 (11734609_at) / Fold change /veh KRTAP5-7 /// NADSYN1 (11734609_at) / RFU RASL12 (11751679_a_at) / Fold change /veh RASL12 (11751679_a_at) / RFU CDKN2B (11736163_a_at) / Fold change /veh CDKN2B (11736163_a_at) / RFU PRF1 (11729649_at) / Fold change /veh PRF1 (11729649_at) / RFU, ZNF638 /// ZNF638-IT1 / Fold change vs veh, ZNF638 /// ZNF638-IT1 / RFU, PANK3 / Fold change vs veh, PANK3 / RFU, SH3YL1 / Fold change vs veh, SH3YL1 / RFU, ZEB2 / Fold change vs veh, ZEB2 / RFU, NRIP1 / Fold change vs veh, NRIP1 / RFU, PTTG1IP / Fold change vs veh, PTTG1IP / RFU, CAPN2 / Fold change vs veh, CAPN2 / RFU, MED14 / Fold change vs veh, MED14 / RFU, SNORA58 / Fold change vs veh, SNORA58 / RFU, C1orf63 / Fold change vs veh, C1orf63 / RFU, LRRFIP1 / Fold change vs veh, LRRFIP1 / RFU, NDUFAF7 / Fold change vs veh, NDUFAF7 / RFU, SLC12A2 / Fold change vs veh, SLC12A2 / RFU, IBTK / Fold change vs veh, IBTK / RFU, ESF1 / Fold change vs veh, ESF1 / Fold change vs veh, TMEM50B / RFU, TAOK1 / Fold change vs veh, TAOK1 / RFU, ACBD3 / Fold change vs veh, ACBD3 / RFU, TMA16 / Fold change vs veh, TMA16 / RFU, RWDD3 / Fold change vs veh, RWDD3 / RFU, BCAT1 / Fold change vs veh, BCAT1 / RFU, EDEM3 / Fold change vs veh, EDEM3 / RFU, TMEM33 / Fold change vs veh, TMEM33 / RFU, WDR75 / Fold change vs veh, WDR75 / RFU, AHCTF1 / Fold change vs veh, AHCTF1 / RFU, TFRC / Fold change vs veh, TFRC / RFU, ZDHHC17 / Fold change vs veh, ZDHHC17 / RFU, NOM1 / Fold change vs veh, NOM1 / RFU, ARL8B / Fold change vs veh, ARL8B / RFU, ZBTB11 / Fold change vs veh, ZBTB11 / RFU, TAMM41 / Fold change vs veh, TAMM41 / RFU, KIAA1704 /// LOC100996395 / Fold change vs veh, KIAA1704 /// LOC100996395 / RFU, ING1 / Fold change vs veh, ING1 / RFU, TRMT61B / Fold change vs veh, TRMT61B / RFU, FUBP3 / Fold change vs veh, FUBP3 / RFU, TP53 / Fold change vs veh, TP53 / RFU, TNKS2 / Fold change vs veh, TNKS2 / RFU, ZFP14 / Fold change vs veh, ZFP14 / RFU, ACTR2 / Fold change vs veh, ACTR2 / RFU, PPP3R1 / Fold change vs veh, PPP3R1 / RFU, PIK3R1 / Fold change vs veh, PIK3R1 / RFU, HNRNPA1 / Fold change vs veh, HNRNPA1 / RFU, RNF170 / Fold change vs veh, RNF170 / RFU, ZNF28 / Fold change vs veh, ZNF28 / RFU, RNGTT / Fold change vs veh, RNGTT / RFU, OGT / Fold change vs veh, OGT / RFU, BRD1 / Fold change vs veh, BRD1 / RFU, MARS / Fold change vs veh, MARS / RFU, ZNF655 / Fold change vs veh, ZNF655 / RFU, FAHD1 / Fold change vs veh, FAHD1 / RFU, BDP1 / Fold change vs veh, BDP1 / RFU, LRRCC1 / Fold change vs veh, LRRCC1 / RFU, ARID1A / Fold change vs veh, ARID1A / RFU, ZNF146 / Fold change vs veh, ZNF146 / RFU, ZNF330 / Fold change vs veh, ZNF330 / RFU, GPN3 / Fold change vs veh, GPN3 / RFU, C9orf123 / Fold change vs veh, C9orf123 / RFU, N4BP2L2 / Fold change vs veh, N4BP2L2 / RFU, ARFIP1 / Fold change vs veh, ARFIP1 / RFU, FAM179B / Fold change vs veh, FAM179B / RFU, BCL10 / Fold change vs veh, BCL10 / RFU, UHRF1BP1L / Fold change vs veh, UHRF1BP1L / RFU, BET1 / Fold change vs veh, BET1 / RFU, CNOT2 / Fold change vs veh, CNOT2 / RFU, ZNF268 / Fold change vs veh, ZNF268 / Fold change vs veh, ZNF507 / RFU, DGCR2 / Fold change vs veh, DGCR2 / RFU, WDSUB1 / Fold change vs veh, WDSUB1 / Fold change vs veh, HSP90B1 /// MIR3652 / RFU, ADSS / Fold change vs veh, ADSS / RFU, GK / Fold change vs veh, GK / RFU, ZNF148 / Fold change vs veh, ZNF148 / RFU, TAF9 / Fold change vs veh, TAF9 / RFU, SLC1A5 / Fold change vs veh, SLC1A5 / RFU, SLMO2 / Fold change vs veh, SLMO2 / RFU, ABCC4 / Fold change vs veh, ABCC4 / RFU, LOC101060439 /// RAP1B / Fold change vs veh, LOC101060439 /// RAP1B / RFU, RFX7 / Fold change vs veh, RFX7 / RFU, GTPBP10 / Fold change vs veh, GTPBP10 / RFU, CNEP1R1 / Fold change vs veh, CNEP1R1 / RFU, BIVM-ERCC5 /// ERCC5 / Fold change vs veh, BIVM-ERCC5 /// ERCC5 / RFU, ILF3 / Fold change vs veh, ILF3 / RFU 11762660_at / Fold change /veh 11762660_at / RFU VCAN (11757783_s_at) / Fold change /veh VCAN (11757783_s_at) / RFU DDX43 (11728927_at) / Fold change /veh DDX43 (11728927_at) / RFU KRT8 (11758188_x_at) / Fold change /veh KRT8 (11758188_x_at) / RFU NKD1 (11759106_at) / Fold change /veh NKD1 (11759106_at) / RFU SRD5A1 (11742802_a_at) / Fold change /veh SRD5A1 (11742802_a_at) / RFU TPSAB1 /// TPSB2 (11721975_s_at) / Fold change /veh TPSAB1 /// TPSB2 (11721975_s_at) / RFU GSTM3 (11746129_a_at) / Fold change /veh GSTM3 (11746129_a_at) / RFU IL23R (11737362_x_at) / Fold change /veh IL23R (11737362_x_at) / RFU TMEM51 (11727254_a_at) / Fold change /veh TMEM51 (11727254_a_at) / RFU PIWIL2 (11732686_x_at) / Fold change /veh PIWIL2 (11732686_x_at) / RFU ORM1 (11744905_x_at) / Fold change /veh ORM1 (11744905_x_at) / RFU CCDC152 (11743942_at) / Fold change /veh CCDC152 (11743942_at) / RFU ECM1 (11717891_a_at) / Fold change /veh ECM1 (11717891_a_at) / RFU IL23R (11748794_a_at) / Fold change /veh IL23R (11748794_a_at) / RFU TNFAIP8L3 (11732012_x_at) / Fold change /veh TNFAIP8L3 (11732012_x_at) / RFU MBOAT4 (11741988_at) / Fold change /veh MBOAT4 (11741988_at) / RFU 11764193_at / Fold change /veh 11764193_at / RFU TMEM53 (11763286_at) / Fold change /veh TMEM53 (11763286_at) / RFU MAGEB2 (11727129_at) / Fold change /veh MAGEB2 (11727129_at) / RFU TMEM200A (11744735_a_at) / Fold change /veh TMEM200A (11744735_a_at) / RFU CCDC152 (11751479_a_at) / Fold change /veh CCDC152 (11751479_a_at) / RFU FAM211A (11726209_a_at) / Fold change /veh FAM211A (11726209_a_at) / RFU RGS16 (11746705_a_at) / Fold change /veh RGS16 (11746705_a_at) / RFU VCAN (11755009_s_at) / Fold change /veh VCAN (11755009_s_at) / RFU RHOB (11743442_s_at) / Fold change /veh RHOB (11743442_s_at) / RFU RGS16 (11720943_a_at) / Fold change /veh RGS16 (11720943_a_at) / RFU RGS16 (11720944_at) / Fold change /veh RGS16 (11720944_at) / RFU, VPS4B / Fold change vs veh, VPS4B / RFU, CREB1 / Fold change vs veh, CREB1 / RFU, DNAJC13 / Fold change vs veh, DNAJC13 / RFU, GNAQ / Fold change vs veh, GNAQ / RFU, CDK5R1 / Fold change vs veh, CDK5R1 / RFU, ZRANB3 / Fold change vs veh, ZRANB3 / RFU, CUL4A / Fold change vs veh, CUL4A / RFU, CCNY / Fold change vs veh, CCNY / RFU, UFL1 / Fold change vs veh, UFL1 / RFU, COG3 / Fold change vs veh, COG3 / RFU, DIAPH2 / Fold change vs veh, DIAPH2 / RFU, SKA2 / Fold change vs veh, SKA2 / RFU, AFF3 / Fold change vs veh, AFF3 / RFU, LMF1 / Fold change vs veh, LMF1 / RFU, IPO11 / Fold change vs veh, IPO11 / RFU, DFFB / Fold change vs veh, DFFB / RFU, FOXP1 / Fold change vs veh, FOXP1 / RFU, CARD8 / Fold change vs veh, CARD8 / RFU, STRN3 / Fold change vs veh, STRN3 / RFU, ADK / Fold change vs veh, ADK / RFU, RASSF2 / Fold change vs veh, RASSF2 / RFU, WIPF1 / Fold change vs veh, WIPF1 / RFU, LARP1B / Fold change vs veh, LARP1B / RFU, RASA1 / Fold change vs veh, RASA1 / RFU, RB1 / Fold change vs veh, RB1 / RFU, PPFIA1 / Fold change vs veh, PPFIA1 / RFU, MAT2A / Fold change vs veh, MAT2A / RFU, CCT5 / Fold change vs veh, CCT5 / RFU, WDR92 / Fold change vs veh, WDR92 / RFU, CUX1 / Fold change vs veh, CUX1 / RFU, TTC7A / Fold change vs veh, TTC7A / RFU, TMEM135 / Fold change vs veh, TMEM135 / RFU, DEPTOR / Fold change vs veh, DEPTOR / RFU, CPM / Fold change vs veh, CPM / RFU, DNAJB6 / Fold change vs veh, DNAJB6 / RFU, CACNA2D3 / Fold change vs veh, CACNA2D3 / RFU, DTX4 / Fold change vs veh, DTX4 / RFU, TFCP2 / Fold change vs veh, TFCP2 / RFU, GMCL1 /// GMCL1P1 / Fold change vs veh, GMCL1 /// GMCL1P1 / RFU, AEBP2 / Fold change vs veh, AEBP2 / RFU, SNHG1 /// SNORD22 /// SNORD25 /// SNORD26 /// SNORD27 /// SNORD28 /// SNORD29 /// SNORD31 / Fold change vs veh, SNHG1 /// SNORD22 /// SNORD25 /// SNORD26 /// SNORD27 /// SNORD28 /// SNORD29 /// SNORD31 / Fold change (Aza/veh), C12orf56 (ProbeSet 11735607_a_at) / Fold change (ACY-1035/veh), C12orf56 (ProbeSet 11735607_a_at) / Fold change (Aza/veh), FGFR1OP (ProbeSet 11751329_s_at) / Fold change (ACY-1035/veh), FGFR1OP (ProbeSet 11751329_s_at) / Fold change (Aza/veh), VPS36 (ProbeSet 11739960_a_at) / Fold change (ACY-1035/veh), VPS36 (ProbeSet 11739960_a_at) / RFU SYPL1 (11715823_x_at) / Fold change /veh SYPL1 (11715823_x_at) / RFU IGFBP7 (11715501_s_at) / Fold change /veh IGFBP7 (11715501_s_at) / RFU REEP3 (11722064_at) / Fold change /veh REEP3 (11722064_at) / RFU IGLL1 (11728026_x_at) / Fold change /veh IGLL1 (11728026_x_at): dose or concentration left out as unconfirmed
Conditions: ProbeSet 11728314_at; LIST B

Q: Which “Fold change vs veh, ZNF148” value does the source give for Nc1ncn([C@@H]2O[C@H](CO)[C@@H](O)[C@H]2O)c(=O)n1 [azacitidine] here?
A: 0.99
